In article PMC5478271, “Chemical structure-guided design of dynapyrazoles, cell-permeable dynein inhibitors with a unique mode of action” (eLife, 2017):
Values joined by “and” are separate entries in the source; they are usually repeats but may differ in a detail not shown here. Equal entries are not always repeated.

Columns and labels:
Format in all cases: biochemical
GFP-dynein 1 = target: T1, GFP-dynein 1 (Homo sapiens, UniProt Q14204); assay: Basal ATPase activity of GFP-dynein 1; conditions: 40 µM compound, 1 mM MgATP, 2% DMSO; control 0.62 ± 0.2 s^−1
T1 construct: (AA 1320–4646 with additional valine [at position 4647], uniprot Q14204); protein A tag (followed by TEV-cleavable linker) (N, cleaved yes); made in house; host or cells: insect cells (baculovirus)
Method: ATPase assays using recombinant Dynein 1 (wild-type and mutants) were performed in a buffer containing 25 mM PIPES pH7.0, 30 mM KCl, 1 mM EGTA, 5 mM MgCl2, 0.01% triton X-100, 1 mM DTT, and 20–30 µM taxol (if microtubules were present). For typical conditions, enzyme was incubated with varying concentrations of inhibitor in buffer containing 2% DMSO for 10 min in a volume of 10 μL. When microtubules were present, they were polymerized by stepwise addition of taxol and high concentrations of DMSO (30% final during polymerization reactions), and re-suspended following centrifugation in ATPase buffer to a concentration up to threefold above the final concentration used in the reaction (bovine brain tubulin, no fluoresecent label). For microtubule-stimulated reactions in dose-response format, reactions were assembled by 1:1:1 mixture of 3x enzyme stock, 3x compound stock (in buffer with 6% DMSO), and 3x microtubule stock to each well. For microtubule-stimulated ATPase assays at tubulin concentrations > 2.5 µM, enzyme stock was supplemented with compound stock in pure DMSO (resulting in an intermediate DMSO concentration of 6%), and then the microtubule stock was added. […]
Assembled reaction mixtures (including enzyme, compound, and microtubules, if present) were incubated for 10 min before addition of ATP. […] The fraction of γ-phosphate hydrolyzed in each condition was quantified using FIJI.

His-dynein 1 = target: T2, His-dynein 1 (Homo sapiens, UniProt Q14204); assay: Microtubule-stimulated ATPase activity of His-dynein 1; conditions: 1 mM MgATP
T2 construct: (wild-type, K1912A, K2601A, AA 1320–4646, uniprot: Q14204); made in house; host or cells: Sf9 insect cells (baculovirus)
Method: (§1) ATPase assays using recombinant Dynein 1 (wild-type and mutants) were performed in a buffer containing 25 mM PIPES pH7.0, 30 mM KCl, 1 mM EGTA, 5 mM MgCl2, 0.01% triton X-100, 1 mM DTT, and 20–30 µM taxol (if microtubules were present). For typical conditions, enzyme was incubated with varying concentrations of inhibitor in buffer containing 2% DMSO for 10 min in a volume of 10 μL. When microtubules were present, they were polymerized by stepwise addition of taxol and high concentrations of DMSO (30% final during polymerization reactions), and re-suspended following centrifugation in ATPase buffer to a concentration up to threefold above the final concentration used in the reaction (bovine brain tubulin, no fluoresecent label). For microtubule-stimulated reactions in dose-response format, reactions were assembled by 1:1:1 mixture of 3x enzyme stock, 3x compound stock (in buffer with 6% DMSO), and 3x microtubule stock to each well. For microtubule-stimulated ATPase assays at tubulin concentrations > 2.5 µM, enzyme stock was supplemented with compound stock in pure DMSO (resulting in an intermediate DMSO concentration of 6%), and then the microtubule stock was added. Final enzyme concentrations were 30–100 nM for GFP-dynein 1, wild-type 6x-His-dynein 1, and K2601A 6x-His-dynein 1 and up to 500 nM for K1912A 6x-His-dynein 1. The final DMSO concentration was 2% in all ATPase assays performed.
(§2) Assembled reaction mixtures (including enzyme, compound, and microtubules, if present) were incubated for 10 min before addition of ATP. Each ATPase reaction was initiated by addition of 2 μL of a 6x ATP stock containing trace γ-^32P ATP (3 µCi/mmol, 3 µCi/mL, Perkin Elmer) and allowed to proceed for a time predetermined to lie within the linear range of the assay (20–30 min). For typical conditions, ATP was used at a final concentration of 1 mM. Reactions were quenched by the addition of 12 µL 100 mM EDTA, and 2 μL of each quenched reaction was spotted onto PEI-cellulose TLC plates (Millipore). Plates were developed in a glass chamber with a freshly prepared solution of 150 mM formic acid and 150 mM LiCl, dried, exposed to a storage phosphor tray (GE Healthsciences), and scanned on a Typhoon imaging system (GE Healthsciences). The fraction of γ-phosphate hydrolyzed in each condition was quantified using FIJI.
Curve fitting: Where dose-response experiments are fit and IC50values given, these are obtained as follows: Individual experiments are treated as separate. […]

[1] = target: T3, AAA3 Walker A-mutant His-dynein 1 (K2601A) (Homo sapiens, UniProt Q14204, K2601A); assay: ATPase activity of AAA3 Walker A-mutant (K2601A) His-dynein 1; conditions: for IC50: 2% DMSO, read-out: IC50, inhibition of the basal ATPase activity of the AAA3 Walker A-mutant His-dynein 1
T3 construct: (wild-type, K1912A, K2601A, AA 1320–4646, uniprot: Q14204); made in house; host or cells: Sf9 insect cells (baculovirus)
Method: as §1, §2
Curve fitting: Where dose-response experiments are fit and IC50values given, these are obtained as follows: Individual experiments are treated as separate. The data are fit to a sigmoidal dose-response curve of the form (Y=Bottom + (Top-Bottom)/(1 + 10^((LogIC50-X)*HillSlope)). All variables were allowed to float freely with the exception of the variable denoted ‘bottom’, which was constrained to be >0. The separate IC50 values obtained from fits to each individual experiment's dataset were averaged together and presented as a mean with range (Figure 3G and H) or standard deviation (Figures 3I, 5D, 6E and K).

T3 sequence (Q14204 1320-4646 K2601A): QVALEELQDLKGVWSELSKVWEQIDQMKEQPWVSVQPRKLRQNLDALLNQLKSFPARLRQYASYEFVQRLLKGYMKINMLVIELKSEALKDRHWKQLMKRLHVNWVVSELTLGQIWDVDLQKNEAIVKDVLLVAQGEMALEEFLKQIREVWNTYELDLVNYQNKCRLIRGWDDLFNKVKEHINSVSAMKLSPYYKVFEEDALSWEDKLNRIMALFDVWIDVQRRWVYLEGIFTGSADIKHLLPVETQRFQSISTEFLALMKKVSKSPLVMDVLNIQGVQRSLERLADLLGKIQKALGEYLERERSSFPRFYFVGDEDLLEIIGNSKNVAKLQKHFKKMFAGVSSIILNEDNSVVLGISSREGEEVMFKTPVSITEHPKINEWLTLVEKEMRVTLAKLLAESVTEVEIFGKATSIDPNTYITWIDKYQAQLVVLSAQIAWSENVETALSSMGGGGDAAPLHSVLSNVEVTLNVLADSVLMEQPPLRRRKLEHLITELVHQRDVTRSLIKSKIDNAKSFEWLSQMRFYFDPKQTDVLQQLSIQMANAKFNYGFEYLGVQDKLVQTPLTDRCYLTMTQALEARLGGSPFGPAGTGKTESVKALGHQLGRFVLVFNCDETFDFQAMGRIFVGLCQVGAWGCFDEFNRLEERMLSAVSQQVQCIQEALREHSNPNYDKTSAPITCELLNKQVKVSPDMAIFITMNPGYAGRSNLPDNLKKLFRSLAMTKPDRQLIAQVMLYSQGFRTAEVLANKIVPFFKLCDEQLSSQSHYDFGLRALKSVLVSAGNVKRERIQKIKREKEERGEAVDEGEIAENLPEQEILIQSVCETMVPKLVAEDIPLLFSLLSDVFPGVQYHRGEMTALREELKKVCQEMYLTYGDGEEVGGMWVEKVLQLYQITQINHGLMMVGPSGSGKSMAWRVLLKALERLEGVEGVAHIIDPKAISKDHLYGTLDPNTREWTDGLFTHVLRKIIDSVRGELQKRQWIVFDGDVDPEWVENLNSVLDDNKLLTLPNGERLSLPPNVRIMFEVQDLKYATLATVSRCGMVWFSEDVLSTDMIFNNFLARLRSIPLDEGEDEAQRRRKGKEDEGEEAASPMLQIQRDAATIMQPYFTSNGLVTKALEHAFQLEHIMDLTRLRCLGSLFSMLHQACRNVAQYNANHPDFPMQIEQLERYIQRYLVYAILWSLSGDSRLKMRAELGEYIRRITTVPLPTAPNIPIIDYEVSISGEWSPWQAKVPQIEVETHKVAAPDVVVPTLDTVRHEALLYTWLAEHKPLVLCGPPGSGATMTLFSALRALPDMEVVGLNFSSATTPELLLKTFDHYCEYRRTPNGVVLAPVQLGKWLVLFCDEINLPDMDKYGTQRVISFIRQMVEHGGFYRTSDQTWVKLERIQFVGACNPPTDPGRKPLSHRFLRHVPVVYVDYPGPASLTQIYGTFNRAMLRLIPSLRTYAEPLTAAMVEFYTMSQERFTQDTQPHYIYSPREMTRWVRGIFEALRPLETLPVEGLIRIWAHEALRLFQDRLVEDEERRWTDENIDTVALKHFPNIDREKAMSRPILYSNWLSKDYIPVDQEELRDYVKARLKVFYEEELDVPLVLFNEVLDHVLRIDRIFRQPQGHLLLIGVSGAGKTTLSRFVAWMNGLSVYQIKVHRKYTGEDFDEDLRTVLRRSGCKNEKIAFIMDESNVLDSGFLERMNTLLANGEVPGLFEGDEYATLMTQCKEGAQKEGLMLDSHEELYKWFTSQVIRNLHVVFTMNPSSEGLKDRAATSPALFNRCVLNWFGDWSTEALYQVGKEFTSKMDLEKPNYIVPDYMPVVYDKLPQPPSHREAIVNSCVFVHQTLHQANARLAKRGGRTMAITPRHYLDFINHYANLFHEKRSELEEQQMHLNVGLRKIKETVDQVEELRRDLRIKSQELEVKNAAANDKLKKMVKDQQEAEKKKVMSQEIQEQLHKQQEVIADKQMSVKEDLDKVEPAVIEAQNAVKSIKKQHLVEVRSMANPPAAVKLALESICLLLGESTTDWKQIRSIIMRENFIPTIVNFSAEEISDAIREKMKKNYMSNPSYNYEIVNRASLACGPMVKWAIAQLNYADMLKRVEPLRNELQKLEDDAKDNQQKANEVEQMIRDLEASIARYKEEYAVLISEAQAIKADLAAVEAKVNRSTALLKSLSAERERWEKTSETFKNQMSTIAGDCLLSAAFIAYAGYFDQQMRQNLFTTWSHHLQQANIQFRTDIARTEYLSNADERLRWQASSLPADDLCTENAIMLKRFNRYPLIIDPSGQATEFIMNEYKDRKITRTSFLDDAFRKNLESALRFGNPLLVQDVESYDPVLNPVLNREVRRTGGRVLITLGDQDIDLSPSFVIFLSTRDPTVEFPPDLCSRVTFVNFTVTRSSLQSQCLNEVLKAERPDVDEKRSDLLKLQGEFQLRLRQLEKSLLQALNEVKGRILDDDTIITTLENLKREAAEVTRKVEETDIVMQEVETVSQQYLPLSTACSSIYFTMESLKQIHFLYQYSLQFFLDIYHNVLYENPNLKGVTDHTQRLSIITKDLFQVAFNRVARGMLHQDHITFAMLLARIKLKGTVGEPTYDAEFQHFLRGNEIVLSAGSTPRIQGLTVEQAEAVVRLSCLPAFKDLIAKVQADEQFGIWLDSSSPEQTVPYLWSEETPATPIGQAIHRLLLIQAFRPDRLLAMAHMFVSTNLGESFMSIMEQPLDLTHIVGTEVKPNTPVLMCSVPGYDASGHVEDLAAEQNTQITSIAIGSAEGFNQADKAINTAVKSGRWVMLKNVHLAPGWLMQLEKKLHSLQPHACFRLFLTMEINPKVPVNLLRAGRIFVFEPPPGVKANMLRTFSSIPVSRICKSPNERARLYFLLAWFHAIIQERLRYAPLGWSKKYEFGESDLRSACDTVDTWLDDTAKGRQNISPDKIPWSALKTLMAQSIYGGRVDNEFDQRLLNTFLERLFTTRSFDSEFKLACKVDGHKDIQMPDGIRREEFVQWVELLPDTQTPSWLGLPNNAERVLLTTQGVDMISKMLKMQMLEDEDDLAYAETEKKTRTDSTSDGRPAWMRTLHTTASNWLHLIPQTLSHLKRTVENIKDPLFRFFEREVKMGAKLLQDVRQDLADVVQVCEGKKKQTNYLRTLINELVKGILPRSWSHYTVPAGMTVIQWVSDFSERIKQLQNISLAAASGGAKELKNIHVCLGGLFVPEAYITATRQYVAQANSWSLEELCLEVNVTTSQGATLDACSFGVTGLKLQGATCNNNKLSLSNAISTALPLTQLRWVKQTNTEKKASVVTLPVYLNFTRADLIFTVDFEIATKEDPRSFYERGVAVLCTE
T2 sequence (Q14204 1320-4646): as the sequence (Q14204 1320-4646 K2601A) above, with A1282K counted along it

N#Cc1c(C2(c3ccc(Cl)cc3)CC2)nn2c1[nH]c(=O)c1cc(I)ccc12 [Compound 8, 2-[1-(4-chlorophenyl)cyclopropyl]-7-iodo-5-oxo-4H-pyrazolo[1,5-a]quinazoline-3-carbonitrile]
Inhibition of basal ATPase activity of GFP-dynein 1 (GFP-dynein 1): did not inhibit | Plateau of microtubule-stimulated ATPase activity at increasing compound concentrations (His-dynein 1; 2.5 µM microtubules): ~ 0.5 s^−1 | IC50 (His-dynein 1; 2.5 µM microtubules, fit to non-zero plateau, read-out: IC50, inhibition of microtubule-stimulated His-dynein 1 ATPase activity): 6.2 ± 1.6 µM | Residual rate of microtubule-stimulated ATPase activity (His-dynein 1; 30 µM compound, 8 or 15 µM microtubules): ~ 0.5 s^−1 | Reduction of AAA3 mutant dynein's ATPase activity across the range of microtubule concentrations tested ([1]; 30 µM compound, 1 mM MgATP): 70–80% | inhibition at 30 µM ([1]; 30 µM compound, no microtubules, read-out: Inhibition of basal activity of the AAA3 mutant): ~70% | IC50 ([1]; 1 mM MgATP): 5.5 ± 1.6 µM | Residual ATPase activity of AAA3 mutant at the highest concentrations tested ([1]; basal activity, dose-response): ~ 0.2 s^−1

N#C/C(C(=O)c1ccc(Cl)cc1Cl)=C1\NC(=O)c2ccc(Cl)cc2N1 [ciliobrevin D, reference compound]
inhibition at 40 µM (GFP-dynein 1): ~70% | Plateau of microtubule-stimulated ATPase activity at increasing compound concentrations (His-dynein 1; 2.5 µM microtubules): did not reveal a plateau | IC50 ([1]; 1 mM MgATP): 38.4 µM and 38 µM
